Test results reported in paper PMC5676250, “Cholesterol-directed nanoparticle assemblies based on single amino acid peptide mutations activate cellular uptake and decrease tumor volume” (Chemical Science, 2017).
Read-outs that look alike come from different tables or passages of the source. Residues, ends and D or L forms follow the SMILES beside them. No end group written: not given here. *: point of attachment. X1 = CC(C)CCC[C@@H](C)[C@H]1CC[C@H]2[C@@H]3CC=C4C[C@@H](OCC(=O)*)CC[C@]4(C)[C@H]3CC[C@]12C

Columns and labels:
[1] = test system: SKOV-3 ovarian cancer cells; settings: 24 h
Method: SKOV-3 cells were seeded in a 35 mm petri dish with a glass cover slide and allowed […]

SKOV-3 cells = assay: MTT assay of endocytosis inhibitors, 40 min; format: cell-based
Method: The cytotoxicity was tested using an MTT assay. […] A combined solution of 5 mg mL^-1 MTT/PBS (10 μL per well) was added to each well of the 96-well plate assay, and the cells were incubated for an additional 4 hours. Formazan extraction was performed with DMSO and quantified colorimetrically using a Synergy H4 Hybrid Microplate reader (Biotek, USA), which was used to measure the OD 490 nm (absorbance value). The following formula was used to calculate the viability of cell growth: viability (%) = (mean of absorbance value of treatment group-blank/mean absorbance value of control-blank) × 100 (MTT was purchased from Sigma-Aldrich).

in vitro = settings: mouse, serum, pH 8.2
Method: A 1.5 mL mixture consisting of 30 μL mouse serum, 750 μL of peptides (1 mg mL^–1) and 1470 μL of digestion buffer (pH 8.2, 50 mM Tris, 20 mM CaCl2) was incubated at 37 °C for 16 h. Peptides treated with digestion buffer served as controls. Aliquots of 400 μL were withdrawn from the mixture and quenched with 400 μL of 1% trifluoroacetic acid (TFA) solution at 1 h, 8 h and 16 h. The quenched solution was analysed by reverse-phase high performance liquid chromatography (RP-HPLC). […]
to adhere overnight at 37 °C under 5% CO2. The cell culture medium was then removed and replaced with fresh McCoy’s 5A medium containing HAL-2 (10 μM) or HAL-C (10 μM) for 1 h. After the medium was removed and the cells were washed with PBS (1 mL × 3 times), 1 mL of PBS containing 4 μL staining solution was added for 1 h.
The cells were then washed with PBS (1 mL × 3 times) before imaging. Cell fluorescence images were obtained with a confocal laser scanning microscope. […] for Tubulin-Trakcer Red: excitation: 561 nm, emission collected: 570 -620 nm; Blue channel for DAPI: excitation: 405 nm, emission collected: 425 -475 nm. (Tubulin-Trakcer Red were purchased from Beyotime Biotechnology) […]
SKOV-3 cells were seeded in a 35 mm petri dish with a glass cover slide and allowed to adhere overnight at 37 °C under 5% CO2. […] Cell fluorescence images were obtained with a confocal laser scanning microscope. […]
A 1.5 mL mixture consisting of 30 μL serum, 750 μL of peptides (1 mg/mL) , and 1470 μL of digestion buffer (pH 8.2, 50 mM Tris, 20 mM CaCl 2 ) was incubated at 37 °C for 16 h. […] The quenched solution was analyzed by reverse -phase […]
In vivo antitumor studies: When the tumors reached a mean volume of 50 mm 3 after inoculation of SKOV-3 cells, the mice were randomly separated into three groups (N=3/group): (1) negative control (PBS); (2) HAL-2; (3) HAL-C. […] During therapy, the tumor volumes and body weights were measured every two days. Length and width of tumors were measured individually using a Vernier caliper. Tumor volumes were calculated using the following formula: tumor volume = length × width 2 × 0.5. […]

[2] = MTT, 40 min incubation, tested inhibitor concentrations (Fig. S17)

**Q.** With `CC[C@H](C)[C@H](NC(=O)[C@H](Cc1c[nH]cn1)NC(=O)[C@H](CCCCN)NC(=O)[C@H](CC(C)C)NC(=O)[C@H](CCCCNC(=O)CO[C@H]1CC[C@@]2(C)C(=CC[C@H]3[C@@H]4CC[C@H]([C@H](C)CCCC(C)C)[C@@]4(C)CC[C@@H]32)C1)NC(=O)[C@H](CO)NC(=O)[C@H](CCSC)NC(=O)[C@H](Cc1c[nH]c2ccccc12)NC(=O)[C@H](CCCCN)NC(=O)CN)C(=O)N[C@@H](CC(C)C)C(=O)N[C@@H](CCCCN)C(N)=O` [HAL-C] (H-GKWMSK(X1)LKHILK-NH2) as the compound, how does the IC50 [1] read?
**A.** 12.7 ± 0.1 µM

**Q.** For `N=C(N)NC(=O)c1nc(Cl)c(N)nc1N` [AM, amiloride], which “decrease of SKOV-3 cell viability” value (SKOV-3 cells; [2]) is on record?
**A.** 20%

**Q.** Which IC50 [1] does the source give for `CC[C@H](C)[C@H](NC(=O)[C@H](Cc1c[nH]cn1)NC(=O)[C@H](CCCCNC(=O)CO[C@H]1CC[C@@]2(C)C(=CC[C@H]3[C@@H]4CC[C@H]([C@H](C)CCCC(C)C)[C@@]4(C)CC[C@@H]32)C1)NC(=O)[C@H](CC(C)C)NC(=O)[C@H](CC(C)C)NC(=O)[C@H](CO)NC(=O)[C@H](CCSC)NC(=O)[C@H](Cc1c[nH]c2ccccc12)NC(=O)[C@H](CCCCN)NC(=O)CN)C(=O)N[C@@H](CC(C)C)C(=O)N[C@@H](CCCCN)C(N)=O` [HAL-B] (H-GKWMSLLK(X1)HILK-NH2) here?
**A.** 24.6 ± 0.1 µM

**Q.** With `CN(C)CCCN1c2ccccc2Sc2ccc(Cl)cc21` [CPZ, chlorpromazine] as the compound, how does the “decrease of SKOV-3 cell viability” value (SKOV-3 cells; [2]) read?
**A.** 38%

**Q.** With `CSCC[C@H](NC(=O)[C@H](Cc1c[nH]c2ccccc12)NC(=O)[C@H](CCCCN)NC(=O)CN)C(=O)N[C@@H](CO)C(=O)N[C@@H](CC(C)C)C(=O)N[C@@H](CC(C)C)C(=O)N[C@@H](CCCCN)C(=O)N[C@@H](Cc1c[nH]cn1)C(=O)N[C@@H](CCCCNC(=O)CO[C@H]1CC[C@@]2(C)C(=CC[C@H]3[C@@H]4CC[C@H]([C@H](C)CCCC(C)C)[C@@]4(C)CC[C@@H]32)C1)C(=O)N[C@@H](CC(C)C)C(=O)N[C@@H](CCCCN)C(N)=O` [HAL-D] (H-GKWMSLLKHK(X1)LK-NH2) as the compound, how does the IC50 [1] read?
**A.** 16.2 ± 0.1 µM

**Q.** With GKWMSLLKHILK-NH2 [HAL-2] as the compound, how does the IC50 [1] read?
**A.** 54.1 ± 0.5 µM

**Q.** And the remaining at 1 h (in vitro)?
**A.** 55.4%

**Q.** And the remaining at 8 h (in vitro)?
**A.** 29.4%

**Q.** And the remaining at 16 h (in vitro)?
**A.** 11.2%

**Q.** For methyl-beta cyclodextrin [MBCD], which “decrease of SKOV-3 cell viability” value (SKOV-3 cells) is on record?
**A.** no significant effects
